Reference: patent US10011562B2, “Long-chain dimethylaniline derivative compounds, their preparation methods, self-assembled textures, and uses thereof” (WEST CHINA HOSPITAL, SICHUAN UNIVERSITY, priority 2014, dated 2018)

Columns and labels:
Type in all cases: in vivo
[1] = tested on: sciatic nerve of rats; assay: First local anesthetic experiment of rats: blocking of sciatic nerve, mechanical withdrawal threshold (VFH, von Frey filaments)
Procedure: (§1) Selected above micelle, positive control lidocaine, and negative control normal saline were respectively administrated to 28 groups of test rats fully adapted to experiment environment, with five rats for each group. The administration dosage is: the concentration of lidocaine group being 2% aqueous solution (84 mmol/L), and the concentration of tested drug being 5 mmol/L. The injection volume of each rat receiving drugs or the control was 0.2 ml, and the drug or the control was injected to close to sciatic nerve of rats by guidance of nerve locator.
(§2) The tested rats were placed on bench board and allowed to inhale 5% isoflurane. After body-righting reflex abolition, rats are allowed to continue inhaling 1.5% isoflurane, to keep anesthesia. Keeping left-lateral position, their corresponding injection area sacrococygeal region was shaved, then routine sterilization and draping were performed. Two osseous anatomic landmarks greater trochanter of femur and tuber is chiadicum were laid hands, and the middle point of this line was the needle insertion position. If skin was taut, 1 ml injector was inserted along perpendicular of skin. When needlepoint reached hucklebone, the insertion was finished. […] Needle was lifted, and is oflurane was shut off. Animals were placed in observation cage until they naturally awakened.
(§3) Rats were placed in transparent observation cages with a bottom of smooth metal sieve plate, and the corrected von frey filament was used to stimulate the foot lateral skin of rats (innervated region of sciatic nerve) from down to up. […] For each stimulation, slightly bent of filament was used as a standard, or rats moved aside this side of limbs. Otherwise, once the stimulation time reached 3 s, operator stopped stimulating. Three tests were carried out for each time point, and the interval between two tests was 5 min, to avoid sensibilization.
(§4) If the mechanical withdrawal threshold value was more than 60 g, the nerve blocking was considered as effective.

[2] = tested on: sciatic nerve of rats; assay: First local anesthetic experiment of rats: blocking of sciatic nerve, motor function by hindlimb postural extensor thrust (PET)
Procedure: as §1, §2
(§5) The hindlimb postural extensor thrust (PET) was used for evaluation. Rats were lifted vertically and their hindlimbs of injection side stepped on the top of electronic balance. At this time, the postural extensor thrust was shown as the value of balance. When limbs were completely paralytic, the digital reading was the weight of limbs, about 20 g. If the test value was more than half of the difference between the baseline and the limbs weight, the motor function was taken as recovery; If less than or equal to half of the difference, the motor function was taken as deprivation.
(§6) The interval between completion of injection and the time point that the motor function was firstly deprivated was the time of effective motor blocking; the interval between completion of injection and the time point that the motor function was firstly recovered was the time of ineffective motor blocking; their difference was the hold time of motor blocking.

[3] = tested on: sciatic nerve of rats; assay: Third local anesthetic experiment of rats: hydrogels embedded near the sciatic nerve, motor function (PET)
From the text: as §5, §6
(§7) 25 mmol/L transparent uniform hydrogels of products obtained in Examples 7-10 and 13-32 were prepared under sterile conditions, as the method of Example 45, and kept for use.
(§8) Above hydrogels, positive control lidocaine, and negative control normal saline were respectively administrated to 35 groups of test rats fully adapted to experiment environment, with five rats for each group. The administration dosage is: the concentration of lidocaine group being 2% aqueous solution (84 mmol/L). The injection volume of each rat receiving drugs or the control was […], and the control was injected to near the sciatic nerve of rats by guidance of nerve locator; by surgery, the gels were embedded near the sciatic nerve of experimental rats after general anesthesia using sevoflurane. Specific procedures and the evaluation criterion for local anesthetic effect were same as mentioned in Example 60.

[4] = tested on: sciatic nerve of rats; assay: Third local anesthetic experiment of rats: hydrogels embedded near the sciatic nerve, mechanical withdrawal threshold (VFH)
Procedure: as §3, §4, §7, §8

[5] = rats, 0.2 ml injected close to sciatic nerve, tested drug 5 mmol/L solution (micelle), lidocaine 2% (84 mmol/L), threshold above 60 g
[6] = rats, 0.2 ml injected close to sciatic nerve, tested drug 5 mmol/L solution (micelle), lidocaine 2% aqueous solution (84 mmol/L)
[7] = rats, 0.2 ml injected close to sciatic nerve, tested drug 5 mmol/L solution (micelle), lidocaine 2% (84 mmol/L)
[8] = rats, 25 mmol/L hydrogel, 0.2 g embedded by surgery near sciatic nerve, lidocaine 2% (84 mmol/L) injected

SMILES | Effective local anesthetic time ([1]; rat, in vivo) | The hold time of sensation blocking ([1]; rat, in vivo) | The hold time of motor blocking ([2]; rat, in vivo) | The hold time of sensation blocking [1, 5] | Effective local anesthetic time [1, 6] | The hold time of motor blocking [2, 7] | The hold time of motor blocking [3, 8] | Effective local anesthetic time [4, 8] | The hold time of sensation blocking [4, 8] | The hold time of motor blocking ([3]; rat, in vivo) | Effective local anesthetic time ([4]; rat, in vivo) | The hold time of sensation blocking ([4]; rat, in vivo)
CCCC(=O)OC[N+](CC)(CC)CC(=O)Nc1c(C)cccc1C [Example4product] | 20 min | 8 h | 8 h |  |  |  |  |  |  |  |  | 
CC[N+](CC)(COC(=O)C(C)(C)C)CC(=O)Nc1c(C)cccc1C [Example5product] | 18 min | 8 h | 8 h |  |  |  |  |  |  |  |  | 
CC[N+](CC)(CCOC(C)=O)CC(=O)Nc1c(C)cccc1C [Example6product] |  |  |  | 72 h | 20 min | 72 h |  |  |  |  |  | 
CCCCCCCCCCCC(=O)OCC[N+](CC)(CC)CC(=O)Nc1c(C)cccc1C [Example7product] |  |  |  | 75 h | 20 min | 70 h | 80 h | 60 min | 90 h |  |  | 
CCCCCCCCCCCCCCCC(=O)OCC[N+](CC)(CC)CC(=O)Nc1c(C)cccc1C [Example8product] |  |  |  | 73 h | 18 min | 70 h | 82 h | 70 min | 92 h |  |  | 
CCCCCCCCCCCC(=O)OCC[N+](CC)(CC)CC(=O)Nc1c(C)cccc1C [Example9product] | 20 min | 80 h | 80 h |  |  |  |  |  |  | 80 h | 75 min | 98 h
CCCCCCCCCCCCCCCC(=O)OCC[N+](CC)(CC)CC(=O)Nc1c(C)cccc1C [Example10product] | 20 min | 81 h | 81 h |  |  |  |  |  |  | 72 h | 85 min | 80 h
CCOC(=O)OCC[N+](CC)(CC)CC(=O)Nc1c(C)cccc1C [Example11product] | 20 min | 82 h | 82 h |  |  |  |  |  |  |  |  | 
CCCCOC(=O)OCC[N+](CC)(CC)CC(=O)Nc1c(C)cccc1C [Example12product] | 20 min | 80 h | 80 h |  |  |  |  |  |  |  |  | 
CCCCCCOC(=O)OCC[N+](CC)(CC)CC(=O)Nc1c(C)cccc1C [Example13product] | 19 min | 79 h | 79 h |  |  |  |  |  |  | 76 h | 45 min | 80 h
CCCCCCCOC(=O)OCC[N+](CC)(CC)CC(=O)Nc1c(C)cccc1C [Example14product] | 15 min | 82 h | 70 h |  |  |  |  |  |  | 76 h | 45 min | 81 h
CCCCCCCOC(=O)OCC[N+](CC)(CC)CC(=O)Nc1c(C)cccc1C [Example15product] | 17 min | 81 h | 66 h |  |  |  |  |  |  | 79 h | 53 min | 81 h
CCCCCCCCOC(=O)OCC[N+](CC)(CC)CC(=O)Nc1c(C)cccc1C [Example16product] | 18 min | 85 h | 62 h |  |  |  |  |  |  | 82 h | 56 min | 82 h
CCCCCCCCOC(=O)OCC[N+](CC)(CC)CC(=O)Nc1c(C)cccc1C [Example17product] | 16 min | 82 h | 62 h |  |  |  |  |  |  | 82 h | 63 min | 85 h
CCCCCCCCCOC(=O)OCC[N+](CC)(CC)CC(=O)Nc1c(C)cccc1C [Example18product] | 16 min | 88 h | 60 h |  |  |  |  |  |  | 79 h | 60 min | 83 h
CCCCCCCCCOC(=O)OCC[N+](CC)(CC)CC(=O)Nc1c(C)cccc1C [Example19product] | 16 min | 82 h | 56 h |  |  |  |  |  |  | 88 h | 65 min | 90 h
CCCCCCCCCOC(=O)OCC[N+](CC)(CC)CC(=O)Nc1c(C)cccc1C [Example21product] |  |  |  | 82 h | 18 min | 60 h | 79 h | 75 min | 88 h |  |  | 
CCCCCCCCCOC(=O)OCC[N+](CC)(CC)CC(=O)Nc1c(C)cccc1C [Example22product] |  |  |  | 81 h | 18 min | 61 h | 87 h | 78 min | 95 h |  |  | 
CCCCCCCCCCOC(=O)OCC[N+](CC)(CC)CC(=O)Nc1c(C)cccc1C [Example23product] | 20 min | 82 h | 62 h |  |  |  |  |  |  | 76 h | 80 min | 92 h
CCCCCCCCCCOC(=O)OCC[N+](CC)(CC)CC(=O)Nc1c(C)cccc1C [Example24product] | 20 min | 82 h | 75 h |  |  |  |  |  |  | 79 h | 78 min | 87 h
